System: caspase 3/7 in T47D cells
Test: Caspase 3/7 activation assay, T47D
Format: cell-based, human
Conditions: 24 h; 1 µM exemestane, 0.5 mM or 1 mM (R)-α-lipoic acid
Method: To analyze the compound-induced activation of capases 3 and 7, the CellEvent caspase 3/7 green detection reagent (Thermo Scientific, Wesel, Germany) was used according to the manufacturer’s instructions. […] After 24 h incubation, medium was removed, and cells were stained with 50 µL of CellEvent caspase 3/7 green detection reagent (2 µM in PBS supplemented with 5% heat-inactivated FBS). Cells were incubated for 30 min at 37 °C in a humidified incubator before imaging by using the Thermo Fisher ArrayScan XTI high content screening (HCS) system with a 10× magnification (Thermo Scientific). Hoechst 33342 was added for nuclei staining.

O=C(O)CCCC[C@H]1CCSS1 [(S)-α-lipoic acid]
caspase 3/7 activation, T47D: slightly lower than (R)-α-lipoic acid

From PMC11313180 (International Journal of Molecular Sciences, 2024)
